Measurements published in article PMC2362861, “Potent interaction of flavopiridol with MRP1” (British Journal of Cancer, 1999).
Like-named read-outs stand apart in the source and are kept apart here.

Tests used:
GLC4 cells = experiment: Steady-state cellular [3H]daunorubicin accumulation in GLC4 cells; format: cell-based, human; conditions: for Accumulation of daunorubicin, mean percentages of control (set at 100%): GLC4, (iso)flavonoid 50 µM (μM), 0.5 M DNR, 75 min; for Effect on accumulation of DNR in GLC4 cells: 50 µM (μM)
GLC4/ADR cells = experiment: Steady-state cellular [3H]daunorubicin accumulation in GLC4/ADR cells; format: cell-based, human; conditions: for Effect on accumulation of DNR in GLC4/ADR cells: 50 µM (μM); for Accumulation of daunorubicin, mean percentages of control (set at 100%): (iso)flavonoid 50 µM (μM), 0.5 M DNR, 75 min
MRP1 ATPase activity = molecular target: T1, MRP1 ATPase activity (Homo sapiens, UniProt P33527); experiment: ATPase activity of GLC4/ADR plasma membranes (colourimetric inorganic phosphate); format: biochemical; conditions: for Induction of ATPase activity of GLC4/ADR membranes in the concentration range tested: glycosylated (iso)flavonoids, Figure 4
T1 construct: plasma membrane vesicles prepared from the MRP1 overexpressing cell line GLC4/ADR; endogenous in cells; host or cells: GLC4/ADR (adriamycin-selected human small-cell lung cancer subline); plasma membrane vesicles
T1 sequence (P33527 whole entry): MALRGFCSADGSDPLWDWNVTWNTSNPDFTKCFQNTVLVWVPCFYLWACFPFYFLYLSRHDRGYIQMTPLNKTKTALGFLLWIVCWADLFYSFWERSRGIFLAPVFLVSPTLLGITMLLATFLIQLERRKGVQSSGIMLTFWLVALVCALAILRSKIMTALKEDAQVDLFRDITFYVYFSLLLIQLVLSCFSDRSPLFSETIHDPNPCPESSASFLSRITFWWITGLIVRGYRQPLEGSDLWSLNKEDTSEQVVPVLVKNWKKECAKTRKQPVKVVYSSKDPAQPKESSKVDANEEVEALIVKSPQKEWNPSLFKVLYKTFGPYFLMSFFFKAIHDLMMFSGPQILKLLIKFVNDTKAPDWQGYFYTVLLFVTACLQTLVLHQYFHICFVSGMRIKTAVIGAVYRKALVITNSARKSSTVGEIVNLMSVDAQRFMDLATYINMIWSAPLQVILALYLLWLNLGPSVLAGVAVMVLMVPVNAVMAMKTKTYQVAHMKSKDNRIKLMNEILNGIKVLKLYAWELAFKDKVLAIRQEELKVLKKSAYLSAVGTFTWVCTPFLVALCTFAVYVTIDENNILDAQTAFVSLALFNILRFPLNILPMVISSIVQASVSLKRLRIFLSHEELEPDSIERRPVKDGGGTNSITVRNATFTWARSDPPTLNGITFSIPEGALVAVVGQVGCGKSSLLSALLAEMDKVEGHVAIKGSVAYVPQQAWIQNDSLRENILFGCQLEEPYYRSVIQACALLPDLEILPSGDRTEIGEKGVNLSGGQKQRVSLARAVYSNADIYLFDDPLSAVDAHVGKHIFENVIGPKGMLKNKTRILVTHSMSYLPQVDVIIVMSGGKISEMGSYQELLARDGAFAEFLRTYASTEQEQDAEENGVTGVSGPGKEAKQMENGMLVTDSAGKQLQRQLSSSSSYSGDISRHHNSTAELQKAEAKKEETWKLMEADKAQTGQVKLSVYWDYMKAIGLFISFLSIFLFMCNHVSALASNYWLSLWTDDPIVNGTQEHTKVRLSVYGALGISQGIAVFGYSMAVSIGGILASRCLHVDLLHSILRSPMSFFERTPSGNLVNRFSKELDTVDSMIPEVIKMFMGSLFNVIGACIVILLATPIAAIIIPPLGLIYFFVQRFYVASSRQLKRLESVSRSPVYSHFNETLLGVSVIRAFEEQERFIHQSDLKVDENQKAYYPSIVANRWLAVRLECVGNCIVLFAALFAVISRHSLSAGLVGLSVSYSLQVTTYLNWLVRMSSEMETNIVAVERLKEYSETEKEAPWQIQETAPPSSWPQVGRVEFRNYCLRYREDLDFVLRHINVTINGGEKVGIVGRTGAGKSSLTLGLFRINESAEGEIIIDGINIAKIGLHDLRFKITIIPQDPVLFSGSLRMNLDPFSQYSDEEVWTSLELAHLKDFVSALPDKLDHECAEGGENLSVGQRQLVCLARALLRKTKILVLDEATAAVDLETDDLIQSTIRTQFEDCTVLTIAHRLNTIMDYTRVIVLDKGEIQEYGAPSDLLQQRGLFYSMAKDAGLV
Description: One form of cellular resistance, directed against a wide spectrum of natural agents, is referred to as multidrug resistance (MDR). […] The ATP-dependent transport of anticancer drugs out of tumour cells that express MDR proteins may at least theoretically lead to impaired treatment outcome of patients. […] 1-Chloro-2,4-dinitrobenzene (CDNB) was from Sigma (St Louis, MO, USA). […] The isoflavonoid genis- tein was from ICN Biomedicals (Zoetermeer, The Netherlands). […] The (iso)flavonoids were dissolved as a stock solution of 40 mM in dimethyl sulphoxide (DMSO; Across Chimica, Belgium) and stored at -20C. Before experiments, 1:1 dilutions were made in ethanol, followed by a dilution in ethanol/water (1: 3; v/v) to the appropriate concentrations. The maximal concentration of DMSO and ethanol, which was also added to the controls, was 0.5% (v/v). Membrane filters OE67 were from Schleicher and Schuell (Dassel, Germany). Doxorubicin hydrochloride was from Laboratoire Roger Bellon (France). […] S1(MRP1) cells were cultured in the presence of G418 until 2-10 days before experiments. […] Cells were harvested by centrifugation (275 g, 5 min) and washed twice in phosphate-buffered saline. Subsequently, the cells were incubated in 100 mM potassium chloride (KCl), 5 mM magnesium chloride (MgCl2 ), 1 mM phenylmethylsulphonyl fluoride and 50 mM HEPES-KOH (pH 7.4) for 1 h at 0C, in order to allow the cells to swell. Then the cells were ultrasonicated at 20% of the maximum power of an MSE sonicator (Soniprep 150) for three bursts of 15 s. The suspension was centrifuged at 1500 g for 10 min. […] After centrifugation at 100 000 g for 60 min the interface was removed and washed in 100 mM KC1-50 mM HEPES-5 mM MgCl2 buffer (pH 7.4). The final membrane preparations were stored at -80C at a protein concentration of ~ 4 mg ml-1 . […] Vesicles were incubated in KCl-HEPES buffer (pH 7.4) at 37C (protein concentration ~ 0.25 mg ml-1 ), in the presence of 10 mM MgCl2 with or without 1 mM ATP and tritium-labelled DNP-SG. The reaction was stopped by adding ice-cold KCl-HEPES buffer. After rapid filtration, the filters were washed twice with KCl-HEPES buffer. The radioactivity on the filters was measured by liquid scintillation counting. […] Plasma membranes were incubated for 1 h in KCl-HEPES buffer (pH 7.4) at 37C, in the presence of 1 mM EGTA, 1 mM sodium azide and 0.1 mM ouabain, with or without 1 mM ATP. […] Plasma membranes from GLC4 cells (black bars) and GLC4 /ADR cells (white bars) were incubated with 10 nM DNP-SG in the absence or presence of the MIB6 antibody (MIB6) (10 g ml-1 ) or an MRP1 control antibody (10 g ml-1 ). […] In short, anti-MRP1 antibodies were tested for their capacity to inhibit DNP-SG transport into GLC4 /ADR inside-out plasma membrane vesicles.

MRP1 = molecular target: T2, MRP1 (Homo sapiens, UniProt P33527); experiment: ATP-dependent uptake of DNP-SG into GLC4/ADR plasma membrane vesicles; format: biochemical; conditions: using 100 nM DNP-SG
T2 construct: using MRP1-transfected cells and several couples of MRP1 overexpressing cell lines and their parental cell lines; endogenous in cells; host or cells: GLC4, GLC4/ADR, HL60, HL60/ADR and SW1573 (endogenous)
T2 sequence (P33527 whole entry): as above
Description: One form of cellular resistance, directed against a wide spectrum of natural agents, is referred to as multidrug resistance (MDR). […] The ATP-dependent transport of anticancer drugs out of tumour cells that express MDR proteins may at least theoretically lead to impaired treatment outcome of patients. […] 1-Chloro-2,4-dinitrobenzene (CDNB) was from Sigma (St Louis, MO, USA). […] The isoflavonoid genis- tein was from ICN Biomedicals (Zoetermeer, The Netherlands). […] The (iso)flavonoids were dissolved as a stock solution of 40 mM in dimethyl sulphoxide (DMSO; Across Chimica, Belgium) and stored at -20C. Before experiments, 1:1 dilutions were made in ethanol, followed by a dilution in ethanol/water (1: 3; v/v) to the appropriate concentrations. The maximal concentration of DMSO and ethanol, which was also added to the controls, was 0.5% (v/v). Membrane filters OE67 were from Schleicher and Schuell (Dassel, Germany). Doxorubicin hydrochloride was from Laboratoire Roger Bellon (France). […] S1(MRP1) cells were cultured in the presence of G418 until 2-10 days before experiments. […] Cells were harvested by centrifugation (275 g, 5 min) and washed twice in phosphate-buffered saline. […] The radioactivity on the filters was measured by liquid scintillation counting. […]

SW1573 = experiment: Growth inhibition assay, SW1573; format: cell-based; conditions: Homo sapiens, read-out: IC50 value
S1(MRP) = experiment: Growth inhibition assay, S1(MRP); format: cell-based, human; conditions: Homo sapiens, 72 h; S1(MRP); 3 days drug exposure; read-out: IC50 value
S1(1.1) = experiment: Growth inhibition assay, S1(1.1); format: cell-based; conditions: Homo sapiens, 72 h, read-out: IC50 value
GLC4 = experiment: Growth inhibition assay, GLC4; format: cell-based, human; conditions: for IC50: Homo sapiens, read-out: IC50 value
GLC4/ADR = experiment: Growth inhibition assay, GLC4/ADR; format: cell-based, human; conditions: for Resistance of MRP1 overexpressing cells: 72-h exposures; for IC50: Homo sapiens, GLC-4/ADR, 72 h, read-out: IC50 value

Q: Which “Accumulation of daunorubicin, mean percentages of control (set at 100%)” value (GLC4 cells) does the source give for `O=c1cc(-c2ccc(O)cc2)oc2cc(O)cc(O)c12` [Apigenin, apigenin] here?
A: 91%

Q: And the “Effect on accumulation of DNR in GLC4/ADR cells” value (“Effect … in GLC4/ADR cells” for short) (GLC4/ADR cells)?
A: increased the accumulation of DNR

Q: For `O=c1cc(-c2ccc(O)cc2)oc2cc(O[C@@H]3O[C@H](CO)[C@@H](O)[C@H](O)[C@H]3O)cc(O)c12` [Apigetrin, apigenin-7-glucose], which “Induction of ATPase activity of GLC4/ADR membranes in the concentration range tested” value (MRP1 ATPase activity) is on record?
A: did not induce ATPase activity

Q: And the “Effect on accumulation of DNR in GLC4 cells” value (GLC4 cells)?
A: small, but significant decrease

Q: What about the “Effect … in GLC4/ADR cells” value (GLC4/ADR cells) of the same molecule?
A: did not increase accumulation of DNR

Q: What about the “Accumulation of daunorubicin, mean percentages of control (set at 100%)” value (GLC4/ADR cells; GLC4/ADR) of the same molecule?
A: 57%

Q: Which “Stimulation of basal ATPase activity of GLC4/ADR membranes above the control” value (MRP1 ATPase activity; 10 M DNP-SG (μM)) does the source give for `N[C@@H](CCC(=O)N[C@@H](CSc1ccc([N+](=O)[O-])cc1[N+](=O)[O-])C(=O)NCC(=O)O)C(=O)O` [DNP-SG, dinitrophenyl-S-glutathione] here?
A: 4.5 nmol mg protein-1 min-1

Q: What about the “ATPase activity stimulation compared to the control” value (MRP1 ATPase activity; 10 M DNP-SG (μM), without MIB6) of the same molecule?
A: 125%

Q: And the “ATP-dependent uptake of DNP-SG into GLC4/ADR vesicles” value (MRP1)?
A: 490 pmol mg protein-1 min-1

Q: Which results are given for `O=c1c(-c2ccc(O)cc2)coc2cc(O)cc(O)c12` [Genistein, genistein]?
A: IC50 (SW1573; 72 h, SW1573, 3 days drug exposure): 10 µM; IC50 (S1(MRP)): 9 µM; IC50 (S1(1.1); S1(1.1), 3 days drug exposure): 9 µM; ATPase stimulation, % of the control (MRP1 ATPase activity; 50 µM genistein (μM), without MIB6): 108%; Concentrations at which ATPase activity of GLC4/ADR membranes was significantly induced (MRP1 ATPase activity; GLC4/ADR membranes, lowest effective concentration and higher): ≥ 1 µM; IC50 (GLC4; 72 h, GLC4, 3 days drug exposure): 12 µM; Resistance of MRP1 overexpressing cells (GLC4/ADR): No resistance; IC50 (GLC4/ADR; GLC4/ADR, 3 days drug exposure): 13 µM; Accumulation of daunorubicin, mean percentages of control (set at 100%) (GLC4 cells): 107%; Effect on accumulation of DNR in GLC4/ADR cells (GLC4/ADR cells): increased the accumulation of DNR; Difference of DNR accumulation from control (P < 0.05) (GLC4/ADR cells; GLC4/ADR, 10 M genistein (μM), Figure 6): gave a significant difference; Modulation of cellular accumulation of DNR at low micromolar concentrations (GLC4/ADR cells; GLC4/ADR, Figure 6): did not modulate

Q: `O=c1c(-c2ccc(O)cc2)coc2cc(O[C@@H]3O[C@H](CO)[C@@H](O)[C@H](O)[C@H]3O)cc(O)c12` [Genistin, genistein-7-glucose] was tested. Which “Induction of ATPase activity of GLC4/ADR membranes in the concentration range tested” value (MRP1 ATPase activity) did it give?
A: did not induce ATPase activity

Q: And the “Accumulation of daunorubicin, mean percentages of control (set at 100%)” value (GLC4 cells)?
A: 101%

Q: And the “Effect … in GLC4/ADR cells” value (GLC4/ADR cells)?
A: did not increase accumulation of DNR

Q: And the “Accumulation of daunorubicin, mean percentages of control (set at 100%)” value (GLC4/ADR cells; GLC4/ADR)?
A: 96%

Q: With `O=c1c(O)c(-c2ccc(O)cc2)oc2cc(O)cc(O)c12` [Kaempferol, kaempferol] as the molecule, how does the IC50 (SW1573; SW1573, 72 h) read?
A: 29 µM

Q: And the IC50 (S1(1.1))?
A: 43 µM

Q: And the IC50 (GLC4; GLC4, 72 h)?
A: 25 µM

Q: And the “Resistance of MRP1 overexpressing cells” value (GLC4/ADR)?
A: No resistance

Q: What about the IC50 (GLC4/ADR) of the same molecule?
A: 11 µM

Q: And the “Accumulation of daunorubicin, mean percentages of control (set at 100%)” value (GLC4 cells)?
A: 92%

Q: And the “Effect … in GLC4/ADR cells” value (GLC4/ADR cells)?
A: increased the accumulation of DNR

Q: What about the “Accumulation of daunorubicin, mean percentages of control (set at 100%)” value (GLC4/ADR cells; GLC4/ADR) of the same molecule?
A: 190%

Q: What does the source list for `O=c1c(O[C@@H]2O[C@H](CO)[C@@H](O)[C@H](O)[C@H]2O)c(-c2ccc(O)cc2)oc2cc(O)cc(O)c12` [Kaempferol-3 glucose, kaempferol-3-glucose]?
A: Effect on accumulation of DNR in GLC4 cells (GLC4 cells): small, but significant decrease; Effect on accumulation of DNR in GLC4/ADR cells (GLC4/ADR cells): did not increase accumulation of DNR

Q: With `CCCN(CCC)S(=O)(=O)c1ccc(C(=O)O)cc1` [probenecid] as the molecule, how does the “Effect of simultaneous incubation with probenecid on the cytotoxic effect of flavopiridol” value (GLC4; GLC4, probenecid 0.5 mM, data not shown) read?
A: did not alter

Q: And the “Effect of simultaneous incubation with probenecid on the cytotoxic effect of flavopiridol” value (GLC4/ADR; GLC4/ADR, probenecid 0.5 mM, data not shown)?
A: did not alter
